B1: Streptococcus agalactiae GAG-PTS EIIA^ΔHA (EIIA for unsaturated hyaluronan disaccharide) (natural protein)
chain: MIKIIIVAHGNFPDGILSSLELIAGHQEYVVGINFIAGMSSNDVRVALQREVIDFKEILVLTDLLGGTPFNVSSALSVEYTDKKIKVLSGLNLSMLMEAVLSRTMFEHVDDLVDKVITSSHEGIVDFSTCLATQTAEATFEGGI
notes: PTS EIIA component of the GAG genetic cluster, gene gbs1890, Streptococcus agalactiae (gbs = strain NEM316); 144 residues (Met1-Ile144); Leu131-Ile144 not seen in the crystal structure; Cloned between NdeI and XhoI of pET21b with a reverse primer without a stop codon, so a C-terminal vector-derived His tag is likely (surmised); No PDB id is printed for the structure solved here; also called …

Legend:
[1] = target: T1, GAG-PTS (EIIABCD; phosphotransferase system for import of unsaturated hyaluronan disaccharide) (Streptococcus agalactiae, UniProt Q8DXF2+Q8DXF3); experiment: PTS assay: pyruvate from phosphoenolpyruvate, lactate dehydrogenase-coupled NADH oxidation at […] nm, toluene-treated cells; format: cell-based; conditions: 10 mM sugar, 5 mM phosphoenolpyruvate, 5 mM MgCl2, 10 mM NaF, 0.1 M potassium phosphate pH 7.5, 37°C; EIIB-EIIC-EIID deletion mutant as control
T1 construct: gene SAG1899; native complex in toluene-permeabilized wild-type S. agalactiae cells; endogenous EI and HPr also required; EIIA dimer in crystal, 144 residues; with PTS mannose family transporter subunit IIA (EIIA)

[2] = target: the molecule itself; experiment: crystal structure; sitting drop vapor diffusion, 20% PEG 3,350, 0.2 M sodium thiocyanate pH 6.9, 20°C; space group P1, six molecules in the asymmetric unit; biological unit judged a dimer with PISA software

T1 sequence (Q8DXF1 entry or part of it, one chain of several, further chain): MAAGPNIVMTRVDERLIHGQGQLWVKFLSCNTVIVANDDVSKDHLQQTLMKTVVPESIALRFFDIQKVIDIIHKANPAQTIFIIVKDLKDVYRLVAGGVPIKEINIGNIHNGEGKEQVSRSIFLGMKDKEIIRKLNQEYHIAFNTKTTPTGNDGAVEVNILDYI
T1 sequence (Q8DXF2 entry or part of it, one chain of several): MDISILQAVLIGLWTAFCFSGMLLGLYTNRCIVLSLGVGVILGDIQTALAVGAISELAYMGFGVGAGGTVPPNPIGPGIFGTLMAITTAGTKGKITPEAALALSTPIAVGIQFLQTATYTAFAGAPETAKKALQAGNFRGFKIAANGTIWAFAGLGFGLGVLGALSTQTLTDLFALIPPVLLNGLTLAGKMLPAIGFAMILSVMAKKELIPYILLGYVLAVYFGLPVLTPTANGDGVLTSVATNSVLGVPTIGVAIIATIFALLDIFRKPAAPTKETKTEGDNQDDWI
T1 sequence (Q8DXF3 entry or part of it, one chain of several): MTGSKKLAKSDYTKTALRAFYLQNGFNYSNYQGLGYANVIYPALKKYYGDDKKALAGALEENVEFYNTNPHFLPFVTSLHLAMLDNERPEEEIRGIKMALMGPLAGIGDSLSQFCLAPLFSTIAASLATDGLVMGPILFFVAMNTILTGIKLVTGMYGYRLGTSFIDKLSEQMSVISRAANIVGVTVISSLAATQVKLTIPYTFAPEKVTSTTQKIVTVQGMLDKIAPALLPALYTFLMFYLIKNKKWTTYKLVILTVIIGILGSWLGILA

Molecule	PTS assay: pyruvate from phosphoenolpyruvate, lactate dehydrogenase-coupled NADH [1]	stoichiometry N [2]
CC(=O)N[C@H]1C(O)O[C@H](CO)[C@@H](O)[C@@H]1O[C@@H]1OC(C(=O)O)=C[C@H](O)[C@H]1O (some centres unmarked) [ΔHA, unsaturated hyaluronan disaccharide]	S. agalactiae imports unsaturated hyaluronan disaccharide using the GAG-PTS encoded in the GAG genetic cluster	
B1		2

Source: publication PMC6837340, “Streptococcal phosphotransferase system imports unsaturated hyaluronan disaccharide derived from host extracellular matrices” (PLoS ONE, 2019)
